From ChEMBL document CHEMBL5154776, “Discovery of Potent and Orally Bioavailable Platelet-Derived Growth Factor Receptor (PDGFR) Inhibitors for the Treatment of Osteosarcoma” (J Med Chem, 2022)
Calls of active or inactive are those of the source. The rule behind the calls is not given here.

How the values were obtained:
[1] = biological target: T1, Platelet-derived growth factor receptor beta (Homo sapiens, UniProt P09619); experiment: Inhibition of PDGFRbeta-mediated downstream signalling in human MNNG/HOS cells assessed as suppression of STAT3 phosphorylation at 0.1 to 0.4 uM measured after 48 hrs by western blot analysis; format: cell-based; details: dose 0.1-0.4 µM
T1 sequence (P09619 whole entry): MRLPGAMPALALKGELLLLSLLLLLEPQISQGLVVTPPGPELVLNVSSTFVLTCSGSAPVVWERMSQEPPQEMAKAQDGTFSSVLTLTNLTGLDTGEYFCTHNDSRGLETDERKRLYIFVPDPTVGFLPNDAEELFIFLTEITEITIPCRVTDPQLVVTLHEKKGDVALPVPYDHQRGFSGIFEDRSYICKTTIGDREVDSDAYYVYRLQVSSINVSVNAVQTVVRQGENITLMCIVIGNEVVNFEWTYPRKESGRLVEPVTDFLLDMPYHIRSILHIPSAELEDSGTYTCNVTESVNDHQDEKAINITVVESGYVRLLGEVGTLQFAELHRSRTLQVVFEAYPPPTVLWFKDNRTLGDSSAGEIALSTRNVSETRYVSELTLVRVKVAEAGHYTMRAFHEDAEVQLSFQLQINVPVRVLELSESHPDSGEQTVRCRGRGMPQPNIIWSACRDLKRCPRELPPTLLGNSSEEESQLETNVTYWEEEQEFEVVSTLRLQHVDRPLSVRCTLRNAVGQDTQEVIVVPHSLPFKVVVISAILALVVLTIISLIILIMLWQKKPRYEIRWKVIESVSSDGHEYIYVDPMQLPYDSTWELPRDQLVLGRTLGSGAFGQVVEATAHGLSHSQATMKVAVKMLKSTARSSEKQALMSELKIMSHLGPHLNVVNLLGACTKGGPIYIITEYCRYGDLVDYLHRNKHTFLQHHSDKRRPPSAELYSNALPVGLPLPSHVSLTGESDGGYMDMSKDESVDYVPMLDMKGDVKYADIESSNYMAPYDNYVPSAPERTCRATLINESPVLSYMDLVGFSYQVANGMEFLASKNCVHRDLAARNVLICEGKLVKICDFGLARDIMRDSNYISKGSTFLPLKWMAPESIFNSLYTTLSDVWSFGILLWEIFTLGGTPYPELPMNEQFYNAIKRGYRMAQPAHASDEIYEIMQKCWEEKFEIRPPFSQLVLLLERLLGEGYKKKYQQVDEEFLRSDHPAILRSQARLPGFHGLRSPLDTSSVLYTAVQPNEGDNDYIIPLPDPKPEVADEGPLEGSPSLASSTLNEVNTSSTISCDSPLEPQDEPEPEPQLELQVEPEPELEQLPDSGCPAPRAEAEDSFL

[2] = biological target: T1, Platelet-derived growth factor receptor beta; experiment: Inhibition of PDGFRbeta-mediated downstream signalling in human MNNG/HOS cells assessed as suppression of AKT phosphorylation at 0.1 to 0.4 uM measured after 48 hrs by western blot analysis; format: cell-based; details: dose 0.1-0.4 µM
HOS-TE85 [3] = experiment: Inhibition of cell migration in human MNNG/HOS cells assessed as reduction of cell mobility after 48 hrs by scratch-wound healing assay; format: functional, cell-based; details: dose 0.1-0.4 µM, DDE = dose-dependent effect
HOS-TE85 [4] = experiment: Inhibition of cell invasion in human MNNG/HOS cells at 0.1 to 0.4 uM measured after 48 hrs by crystal violet staining based transwell assay; format: functional; details: dose 0.1-0.4 µM
HOS-TE85 [5] = experiment: Antiinvasive activity against human MNNG/HOS cells assessed as expression of FAK by measuring fluorescence at 0.1 to 0.4 uM upto 48 hrs by DAPI staining based immunofluorescence microscopic analysis; format: functional, cell-based; details: dose 0.1-0.4 µM
MG-63 [6] = experiment: Antiinvasive activity against human MG-63 cells assessed as expression of FAK by measuring fluorescence at 0.1 to 0.4 uM upto 48 hrs by DAPI staining based immunofluorescence microscopic analysis; format: functional, cell-based; details: dose 0.1-0.4 µM
MG-63 [7] = experiment: Inhibition of alpha tubulin expression in human MG-63 cells at 0.1 to 0.4 uM measured after 48 hrs by western blot analysis; format: functional, cell-based; details: dose 0.1-0.4 µM
MG-63 [8] = experiment: Antimigratory activity against human MG-63 cells assessed as reduction in cell spreading area upto 48 hrs by DAPI staining based immunofluorescence microscopic analysis; format: functional; details: dose 0.1-0.4 µM, DDE = dose-dependent effect
HOS-TE85 [9] = experiment: Inhibition of FAK expression in human MNNG/HOS cells incubated for 48 hrs by Western blot analysis; format: functional, cell-based; details: dose 0.1-0.4 µM, DDE = dose-dependent effect
HOS-TE85 [10] = experiment: Inhibition of PDGFRbeta expression in human MNNG/HOS cells incubated for 48 hrs by Western blot analysis; format: functional, cell-based
[11] = biological target: T1, Platelet-derived growth factor receptor beta; experiment: Inhibition of PDGFRbeta phosphorylation in human MG-63 cells incubated for 48 hrs by Western blot analysis; format: cell-based
HOS-TE85 [12] = experiment: Antiproliferative activity against human MNNG/HOS cells xenografted in BALB/c nude mouse assessed as suppression of tumor growth at 15 to 30 mg/kg/day, po dosed for 14 days by immunohistochemistry analysis; format: functional, organism-based; details: dose lower […], dose upper 30.0 mg/kg/day, time 14.0 day
HOS-TE85 [13] = experiment: Induction of apoptosis in human MNNG/HOS cells xenografted in BALB/c nude mouse at 15 to 30 mg/kg/day, po dosed for 14 days by immunohistochemistry analysis; format: functional, organism-based; details: dose lower […], dose upper 30.0 mg/kg/day, time 14.0 day
HOS-TE85 [14] = experiment: In vivo inhibition of PDGFRbeta-mediated downstream signalling in human MNNG/HOS cells xenografted in BALB/c nude mouse assessed as phosphorylation of STAT3 in tumor tissue at 15 to 30 mg/kg/day, po for 14 days; format: functional, organism-based; details: dose lower […], dose upper 30.0 mg/kg/day, time 14.0 day
HOS-TE85 [15] = experiment: In vivo inhibition of PDGFRbeta-mediated downstream signalling in human MNNG/HOS cells xenografted in BALB/c nude mouse assessed as phosphorylation of PDGFR in tumor tissue at 15 to 30 mg/kg/day, po for 14 days; format: functional, organism-based; details: dose lower […], dose upper 30.0 mg/kg/day, time 14.0 day
[16] = biological target: T1, Platelet-derived growth factor receptor beta; experiment: Inhibition of PDGFRbeta in PDGF AA/BB stimulated human MG-63 cells assessed as reduction in fluorescence intensity measured after 48 hrs by DAPI staining based immunofluorescence analysis; format: cell-based; details: dose 0.1-0.4 µM, DDE = dose-dependent effect

inhibition [1]: Active | inhibition [2]: Active | inhibition [11]: Active | inhibition [16]: Dde
SMILES: CCN1CCN(c2ccc(Nc3ncc(C)c(Nc4ccc5cn[nH]c5c4)n3)cc2OC)CC1
inhibition (HOS-TE85 [3]): Dde | inhibition (HOS-TE85 [4]): Active | Activity (HOS-TE85 [5]): Active | Activity (MG-63 [6]): Active | inhibition (MG-63 [7]): Active | Activity (MG-63 [8]): Dde | inhibition (HOS-TE85 [9]): Dde | inhibition (HOS-TE85 [10]): Active | Activity (HOS-TE85 [12]): Active | Activity (HOS-TE85 [13]): Active | inhibition (HOS-TE85 [14]): Active | inhibition (HOS-TE85 [15]): Active
